Results taken from patent US20070219186A1, “Pyrazolo[1,5-A]pyrimidine derivatives and methods of use thereof” (priority 2006, published 2007).
Read-outs that look alike come from different tables or passages of the source.

Molecular target: T1, human B-Raf (Homo sapiens, UniProt P15056)
T1 construct: Flag; GST; made in house; host or cells: Sf9 insect cells (B-Raf); E. coli (MEK1-GST)
Test: B-Raf Kinase to MEK1 ELISA
Format: biochemical
Conditions: for inhibition at 10 µM: read-out: % Inhib./10 uM
Outline: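 Read-out is a DELFIA europium signal from phospho-MEK1 (Ser217/221) antibody after capture of GST-MEK1 (50 nM final) on anti-GST plates. Phosphorylation comes from Sf9-expressed Flag/GST human B-Raf (~20 ng) with ATP/MgCl2, 60 min RT, pH 7.2 MOPS.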

[1] = median, cpd concentrations from 10 μM to 30 nM in half log dilutions, read-out: Median IC50

T1 sequence (P15056 whole entry): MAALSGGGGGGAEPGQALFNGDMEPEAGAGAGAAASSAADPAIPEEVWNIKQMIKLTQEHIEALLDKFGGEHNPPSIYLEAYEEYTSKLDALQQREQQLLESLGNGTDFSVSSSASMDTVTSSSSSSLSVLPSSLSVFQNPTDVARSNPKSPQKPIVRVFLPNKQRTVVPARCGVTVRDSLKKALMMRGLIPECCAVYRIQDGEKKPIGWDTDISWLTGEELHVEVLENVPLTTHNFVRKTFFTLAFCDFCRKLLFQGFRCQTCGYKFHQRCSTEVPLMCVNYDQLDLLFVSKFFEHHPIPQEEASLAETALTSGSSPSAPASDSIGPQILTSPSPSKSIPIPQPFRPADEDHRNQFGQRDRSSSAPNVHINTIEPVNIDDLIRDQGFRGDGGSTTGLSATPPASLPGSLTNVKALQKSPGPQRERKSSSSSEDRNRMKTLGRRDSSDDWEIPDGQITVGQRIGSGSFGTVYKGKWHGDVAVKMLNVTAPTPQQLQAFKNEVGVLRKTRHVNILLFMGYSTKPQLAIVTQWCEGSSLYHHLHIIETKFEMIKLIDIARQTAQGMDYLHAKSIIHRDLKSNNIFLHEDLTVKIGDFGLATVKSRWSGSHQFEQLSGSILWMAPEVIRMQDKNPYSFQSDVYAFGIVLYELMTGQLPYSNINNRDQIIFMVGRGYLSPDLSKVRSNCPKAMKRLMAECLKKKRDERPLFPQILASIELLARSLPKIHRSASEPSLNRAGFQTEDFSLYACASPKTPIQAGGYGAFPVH

SMILES | IC50 [1] [nM] | inhibition at 10 µM [%] | IC50 [nM] | % Inhib./10 uM (single point assay, 10 uM) [%]
O=C(Cc1c[nH]cn1)Nc1ccc(-c2cnn3c(-c4cccc(NC(=O)c5cccc(C(F)(F)F)c5)c4)ccnc23)cc1 [Example 232, N-[3-(3-{4-[(1H-imidazol-4-ylacetyl)amino]phenyl}pyrazolo[1,5-a]pyrimidin-7-yl)phenyl]-3-(trifluoromethyl)benzamide] | 174 | 99 | – | –
O=C(Cc1nnn[nH]1)Nc1ccc(-c2cnn3c(-c4cccc(NC(=O)c5cccc(C(F)(F)F)c5)c4)ccnc23)cc1 [Example 233, N-[3-(3-{4-[(1H-tetrazol-5-ylacetyl)amino]phenyl}pyrazolo[1,5-a]pyrimidin-7-yl)phenyl]-3-(trifluoromethyl)benzamide] | 1000 | 96 | – | –
CN(C)CCCC(=O)Nc1ccc(-c2cnn3c(-c4cccc(NC(=O)c5cccc(C(F)(F)F)c5)c4)ccnc23)cc1 [Example 234, N-{3-[3-(4-{[4-(dimethylamino)butanoyl]amino}phenyl)pyrazolo[1,5-a]pyrimidin-7-yl]phenyl}-3-(trifluoromethyl)benzamide] | 19 | 96 | – | –
COCCOCC(=O)Nc1ccc(-c2cnn3c(-c4cccc(NC(=O)c5cccc(C(F)(F)F)c5)c4)ccnc23)cc1 [Example 235, N-{3-[3-(4-{[(2-methoxyethoxy)acetyl]amino}phenyl)pyrazolo[1,5-a]pyrimidin-7-yl]phenyl}-3-(trifluoromethyl)benzamide] | 169 | 84 | – | –
Cn1cccc1C(=O)Nc1cccc(-c2ccnc3cc(-c4ccncc4)nn23)c1 [Example 236, 1-methyl-N-[3-(2-pyridin-4-ylpyrazolo[1,5-a]pyrimidin-7-yl)phenyl]-1H-pyrrole-2-carboxamide] | – | 50 | – | –
O=C(Nc1cccc(-c2ccnc3cc(-c4ccncc4)nn23)c1)c1nccc2ccccc12 [Example 237, N-[3-(2-pyridin-4-ylpyrazolo[1,5-a]pyrimidin-7-yl)phenyl]isoquinoline-1-carboxamide] | > 10000 | 44 | – | –
Cn1c(C(=O)Nc2cccc(-c3ccnc4cc(-c5ccncc5)nn34)c2)cc2ccccc21 [Example 238, 1-methyl-N-[3-(2-pyridin-4-ylpyrazolo[1,5-a]pyrimidin-7-yl)phenyl]-1H-indole-2-carboxamide] | > 10000 | 50 | – | –
O=C(Nc1cccc(-c2ccnc3cc(-c4ccncc4)nn23)c1)c1ccc(Br)s1 [Example 239, 5-bromo-N-[3-(2-pyridin-4-ylpyrazolo[1,5-a]pyrimidin-7-yl)phenyl]thiophene-2-carboxamide] | 200 | 86 | – | –
CC(C)(C)CC(=O)Nc1cccc(-c2ccnc3cc(-c4ccncc4)nn23)c1 [Example 240, 3,3-dimethyl-N-[3-(2-pyridin-4-ylpyrazolo[1,5-a]pyrimidin-7-yl)phenyl]butanamide] | > 10000 | 10 | – | –
O=C(Nc1cccc(-c2ccnc3cc(-c4ccncc4)nn23)c1)c1cc(Cl)ccc1Br [Example 241, 2-bromo-5-chloro-N-[3-(2-pyridin-4-ylpyrazolo[1,5-a]pyrimidin-7-yl)phenyl]benzamide] | > 10000 | 34 | – | –
CCOC(=O)c1cnn2c(-c3cccc(NC(=O)c4cccc(C)c4)c3)ccnc12 [Example 242, ethyl 7-{3-[(3-methylbenzoyl)amino]phenyl}pyrazolo[1,5-a]pyrimidine-3-carboxylate] | > 10000 | 20 | – | –
CCOC(=O)c1cnn2c(-c3cccc(NC(=O)c4cc(C(C)(C)C)nn4C)c3)ccnc12 [Example 243, ethyl7-(3-{[(3-tert-butyl-1-methyl-1H-pyrazol-5-yl)carbonyl]amino}phenyl)pyrazolo[1,5-a]pyrimidine-3-carboxylate] | > 10000 | 18 | – | –
CCOC(=O)c1cnn2c(-c3cccc(NC(=O)Nc4nc5ccc(OC)cc5s4)c3)ccnc12 [Example 244, ethyl7-[3-({[(6-methoxy-1,3-benzothiazol-2-yl)amino]carbonyl}amino)phenyl]pyrazolo[1,5-a]pyrimidine-3-carboxylate] | > 10000 | 24 | – | –
CCOC(=O)c1cnn2c(-c3cccc(NC(=O)Nc4ccc5c(c4)OCO5)c3)ccnc12 [Example 245, ethyl7-(3-{[(1,3-benzodioxol-5-ylamino)carbonyl]amino}phenyl)pyrazolo[1,5-a]pyrimidine-3-carboxylate] | > 10000 | 18 | – | –
CCOC(=O)c1cnn2c(-c3cccc(NC(=O)Nc4nc5ccc(Cl)cc5s4)c3)ccnc12 [Example 246, ethyl7-[3-({[(6-chloro-1,3-benzothiazol-2-yl)amino]carbonyl}amino)phenyl]pyrazolo[1,5-a]pyrimidine-3-carboxylate] | > 10000 | 34 | – | –
CCOC(=O)c1cnn2c(-c3cccc(NC(=O)Nc4cc(C)no4)c3)ccnc12 [Example 247, ethyl7-[3-({[(3-methylisoxazol-5-yl)amino]carbonyl}amino)phenyl]pyrazolo[1,5-a]pyrimidine-3-carboxylate] | > 10000 | 15 | – | –
CCOC(=O)c1cnn2c(-c3cccc(NC(=O)Nc4cc(C)on4)c3)ccnc12 [Example 248, ethyl7-[3-({[(5-methylisoxazol-3-yl)amino]carbonyl}amino)phenyl]pyrazolo[1,5-a]pyrimidine-3-carboxylate] | > 10000 | 10 | – | –
O=C1CN(c2cc3nccc(-c4cccc(NC(=O)c5cccc(C(F)(F)F)c5)c4)n3n2)CCN1 [Example 249, N-{3-[2-(3-oxopiperazin-1-yl)pyrazolo[1,5-a]pyrimidin-7-yl]phenyl}-3-(trifluoromethyl)benzamide] | 471 | 76 | – | –
O=C(Nc1cccc(-c2ccnc3cc(O)nn23)c1)c1cccc(C(F)(F)F)c1 [Example 250, N-[3-(2-hydroxypyrazolo[1,5-a]pyrimidin-7-yl)phenyl]-3-(trifluoromethyl)benzamide] | > 10000 | 16 | – | –
O=C1CCN(c2cc3nccc(-c4cccc(NC(=O)c5cccc(C(F)(F)F)c5)c4)n3n2)CC1 [Example 251, N-{3-[2-(4-oxopiperidin-1-yl)pyrazolo[1,5-a]pyrimidin-7-yl]phenyl}-3-(trifluoromethyl)benzamide] | – | 42 | – | –
COCC(=O)Nc1cccc(-c2cnn3c(-c4cccc(NC(=O)c5cccc(C(F)(F)F)c5)c4)ccnc23)c1 [Example 252, N-[3-(3-{3-[(methoxyacetyl)amino]phenyl}pyrazolo[1,5-a]pyrimidin-7-yl)phenyl]-3-(trifluoromethyl)benzamide] | 82 | 79 | – | –
CN(C)CC(=O)Nc1cccc(-c2cnn3c(-c4cccc(NC(=O)c5cccc(C(F)(F)F)c5)c4)ccnc23)c1 [Example 253, N-[3-(3-{3-[(N,N-dimethylglycyl)amino]phenyl}pyrazolo[1,5-a]pyrimidin-7-yl)phenyl]-3-(trifluoromethyl)benzamide] | 40 | 97 | – | –
COCCC(=O)Nc1cccc(-c2cnn3c(-c4cccc(NC(=O)c5cccc(C(F)(F)F)c5)c4)ccnc23)c1 [Example 254, N-[3-(3-{3-[(3-methoxypropanoyl)amino]phenyl}pyrazolo[1,5-a]pyrimidin-7-yl)phenyl]-3-(trifluoromethyl)benzamide] | 90 | 82 | – | –
CC(=O)NCC(=O)Nc1cccc(-c2cnn3c(-c4cccc(NC(=O)c5cccc(C(F)(F)F)c5)c4)ccnc23)c1 [Example 255, N-[3-(3-{3-[(N-acetylglycyl)amino]phenyl}pyrazolo[1,5-a]pyrimidin-7-yl)phenyl]-3-(trifluoromethyl)benzamide] | 49 | 91 | – | –
O=C(Cc1nnn[nH]1)Nc1cccc(-c2cnn3c(-c4cccc(NC(=O)c5cccc(C(F)(F)F)c5)c4)ccnc23)c1 [Example 256, N-[3-(3-{3-[(1H-tetrazol-5-ylacetyl)amino]phenyl}pyrazolo[1,5-a]pyrimidin-7-yl)phenyl]-3-(trifluoromethyl)benzamide] | 122 | 97 | – | –
CN(C)CCCNc1cc(-c2cc3nccc(-c4cccc(NC(=O)c5cccc(C(F)(F)F)c5)c4)n3n2)ccn1 [Example 257, N-{3-[2-(2-{[3-(dimethylamino)propyl]amino}pyridin-4-yl)pyrazolo[1,5-a]pyrimidin-7-yl]phenyl}-3-(trifluoromethyl)benzamide] | 74.5 | 97 | – | –
O=C(Nc1cccc(-c2ccnc3cc(-c4ccnc(NCCCN5CCOCC5)c4)nn23)c1)c1cccc(C(F)(F)F)c1 [Example 258, N-[3-(2-{2-[(3-morpholin-4-ylpropyl)amino]pyridin-4-yl}pyrazolo[1,5-a]pyrimidin-7-yl)phenyl]-3-(trifluoromethyl)benzamide] | – | – | 134 | 95
O=C(Nc1cccc(-c2ccnc3cc(-c4ccnc(NCCCN5CCCCC5)c4)nn23)c1)c1cccc(C(F)(F)F)c1 [Example 259, N-[3-(2-{2-[(3-piperidin-1-ylpropyl)amino]pyridin-4-yl}pyrazolo[1,5-a]pyrimidin-7-yl)phenyl]-3-(trifluoromethyl)benzamide] | 91.4 | 99 | – | –
O=C(Nc1cccc(-c2ccnc3cc(-c4ccnc(NCCCN5CCCC5=O)c4)nn23)c1)c1cccc(C(F)(F)F)c1 [Example 261, N-{3-[2-(2-{[3-(2-oxopyrrolidin-1-yl)propyl]amino}pyridin-4-yl)pyrazolo[1,5-a]pyrimidin-7-yl]phenyl}-3-(trifluoromethyl)benzamide] | – | 94 | 113 | –
